Columns and labels:
Type in all cases: cell-based
αvβ6 = target: T1, αvβ6 (Homo sapiens, UniProt P06756+P18564); test: Cell Adhesion Assay K562-αvβ6 (LAP-b1); settings: K562-αvβ6 cells, ligand LAP-b1, 2 mM MgCl2; read-out: mean affinity (pIC50) αvβ6 (converted)
T1 construct: expressed in transfected cells; host or cells: K562
Experimental: (§1) The following cell lines were used, with ligands in brackets: K562-α5β1 (Fibronectin), K562-αvβ3 (LAP-b1), K562-αvβ5 (Vitronectin), K562-αvβ6 (LAP-b1), K562-αvβ8 (LAP-b1). The divalent cation used to facilitate adhesion was 2 mM MgCl2. Adhesion was quantified by cell labelling with the fluorescent dye BCECF-AM (Life Technologies), where cell suspensions at 3×10^6 cells/mL were incubated with […] of 30 mM BCECF-AM at 37° C. for 10 minutes, before dispensing into the assay plate. At the assay conclusion cells that adhered were lysed using 50 μL/well of 0.5% Triton X-100 in H2O to release fluorescence. Fluorescence intensity was detected using an Envision® plate reader (Perkin Elmer). For active antagonists in the assay, data were fitted to a 4 parameter logistic equation for IC50 determinations.

αvβ5 = target: T2, αvβ5 (Homo sapiens, UniProt P06756+P18084); test: Cell Adhesion Assay K562-αvβ5 (Vitronectin); settings: K562-αvβ5 cells, ligand Vitronectin, 2 mM MgCl2; read-out: mean affinity (pIC50) αvβ5 (converted)
T2 construct: expressed in transfected cells; host or cells: K562
Experimental: as §1

αvβ8 = target: T3, αvβ8 (Homo sapiens, UniProt P06756+P26012); test: Cell Adhesion Assay K562-αvβ8 (LAP-b1); settings: K562-αvβ8 cells, ligand LAP-b1, 2 mM MgCl2; read-out: mean affinity (pIC50) αvβ8 (converted)
T3 construct: expressed in transfected cells; host or cells: K562
Experimental: as §1

αvβ3 = target: T4, αvβ3 (Homo sapiens, UniProt P05106+P06756); test: Cell Adhesion Assay K562-αvβ3 (LAP-b1); settings: K562-αvβ3 cells, ligand LAP-b1, 2 mM MgCl2; read-out: mean affinity (pIC50) αvβ3 (converted)
T4 construct: expressed in transfected cells; host or cells: K562
Experimental: as §1

αvβ1 = αvβ1 (Homo sapiens, UniProt P05556+P06756); test: Cell Adhesion Assay αvβ1; settings: 2 mM MgCl2, cell line and ligand for αvβ1 not given, read-out: mean affinity (pIC50) αvβ1 (converted)

T1 sequence (P06756 31-889 limits assumed): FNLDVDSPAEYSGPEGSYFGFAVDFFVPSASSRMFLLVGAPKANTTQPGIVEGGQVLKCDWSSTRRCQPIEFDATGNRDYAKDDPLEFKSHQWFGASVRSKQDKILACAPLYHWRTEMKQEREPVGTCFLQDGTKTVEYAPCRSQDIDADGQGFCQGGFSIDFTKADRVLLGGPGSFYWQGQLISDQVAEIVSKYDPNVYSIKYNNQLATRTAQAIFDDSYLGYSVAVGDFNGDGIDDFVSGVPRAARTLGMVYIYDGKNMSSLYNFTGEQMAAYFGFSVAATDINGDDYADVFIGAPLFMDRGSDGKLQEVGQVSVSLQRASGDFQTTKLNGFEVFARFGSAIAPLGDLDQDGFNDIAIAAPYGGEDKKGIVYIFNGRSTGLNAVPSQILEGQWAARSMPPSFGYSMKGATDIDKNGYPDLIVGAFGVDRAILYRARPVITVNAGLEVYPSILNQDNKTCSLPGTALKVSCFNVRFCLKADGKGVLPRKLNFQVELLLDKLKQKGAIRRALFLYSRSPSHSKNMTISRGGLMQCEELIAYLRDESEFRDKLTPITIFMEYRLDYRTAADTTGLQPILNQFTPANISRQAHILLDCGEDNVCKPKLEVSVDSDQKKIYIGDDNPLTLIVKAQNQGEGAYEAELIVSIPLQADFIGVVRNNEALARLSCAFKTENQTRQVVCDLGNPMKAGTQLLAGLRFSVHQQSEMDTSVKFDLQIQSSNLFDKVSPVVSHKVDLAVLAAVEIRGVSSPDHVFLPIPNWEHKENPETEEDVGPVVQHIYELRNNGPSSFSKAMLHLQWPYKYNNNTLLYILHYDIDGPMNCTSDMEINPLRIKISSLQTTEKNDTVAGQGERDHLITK
T1 sequence (P06756 891-1048 partner limits assumed): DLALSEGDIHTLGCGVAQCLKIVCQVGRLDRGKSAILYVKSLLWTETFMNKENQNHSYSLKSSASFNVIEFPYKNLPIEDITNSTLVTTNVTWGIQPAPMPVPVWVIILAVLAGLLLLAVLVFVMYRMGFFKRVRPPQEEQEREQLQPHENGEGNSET
T1 sequence (P18564 22-788): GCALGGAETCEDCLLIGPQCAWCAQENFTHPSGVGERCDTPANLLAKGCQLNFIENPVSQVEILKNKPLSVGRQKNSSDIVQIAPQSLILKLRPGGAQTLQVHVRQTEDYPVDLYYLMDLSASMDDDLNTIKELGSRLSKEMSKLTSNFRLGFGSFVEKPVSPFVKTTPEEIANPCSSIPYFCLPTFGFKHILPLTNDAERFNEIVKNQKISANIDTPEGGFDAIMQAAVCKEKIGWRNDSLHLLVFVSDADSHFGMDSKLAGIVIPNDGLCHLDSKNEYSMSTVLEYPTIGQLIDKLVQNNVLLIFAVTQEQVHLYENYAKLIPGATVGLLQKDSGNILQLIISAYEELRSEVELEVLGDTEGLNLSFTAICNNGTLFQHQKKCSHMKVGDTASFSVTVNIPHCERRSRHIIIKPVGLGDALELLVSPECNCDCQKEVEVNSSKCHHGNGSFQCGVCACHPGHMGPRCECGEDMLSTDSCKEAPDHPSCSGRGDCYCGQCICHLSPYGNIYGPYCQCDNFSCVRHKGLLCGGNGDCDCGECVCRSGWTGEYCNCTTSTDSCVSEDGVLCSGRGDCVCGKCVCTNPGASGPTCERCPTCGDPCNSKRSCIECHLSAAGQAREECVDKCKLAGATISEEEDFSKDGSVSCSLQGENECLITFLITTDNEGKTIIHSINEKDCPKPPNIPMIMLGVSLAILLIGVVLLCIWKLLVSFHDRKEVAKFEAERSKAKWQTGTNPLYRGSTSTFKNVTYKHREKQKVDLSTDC
T3 sequence (P06756 31-889 limits assumed): as the sequence (P06756 31-889 limits assumed) above
T3 sequence (P06756 891-1048 partner limits assumed): as the sequence (P06756 891-1048 partner limits assumed) above
T3 sequence (P26012 43-769): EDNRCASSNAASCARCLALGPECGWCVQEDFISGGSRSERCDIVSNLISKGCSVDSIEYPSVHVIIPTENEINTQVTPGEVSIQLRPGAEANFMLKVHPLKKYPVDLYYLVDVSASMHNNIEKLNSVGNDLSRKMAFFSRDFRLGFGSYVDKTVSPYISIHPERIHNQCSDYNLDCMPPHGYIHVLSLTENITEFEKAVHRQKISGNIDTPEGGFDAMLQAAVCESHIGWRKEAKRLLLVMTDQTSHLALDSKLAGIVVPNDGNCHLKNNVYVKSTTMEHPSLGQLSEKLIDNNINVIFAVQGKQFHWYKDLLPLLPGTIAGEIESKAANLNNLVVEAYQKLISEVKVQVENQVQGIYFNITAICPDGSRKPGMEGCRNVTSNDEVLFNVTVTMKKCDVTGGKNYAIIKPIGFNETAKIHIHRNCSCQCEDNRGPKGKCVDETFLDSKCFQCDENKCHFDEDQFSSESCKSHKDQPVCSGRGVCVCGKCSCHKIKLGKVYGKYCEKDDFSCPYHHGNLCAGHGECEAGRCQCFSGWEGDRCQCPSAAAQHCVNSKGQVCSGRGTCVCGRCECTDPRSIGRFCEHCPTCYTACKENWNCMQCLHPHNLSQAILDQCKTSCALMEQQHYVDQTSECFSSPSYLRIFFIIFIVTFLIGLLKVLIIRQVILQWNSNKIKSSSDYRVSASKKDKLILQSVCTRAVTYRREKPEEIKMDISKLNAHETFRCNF
T2 sequence (P06756 31-889 limits assumed): as the sequence (P06756 31-889 limits assumed) above
T2 sequence (P06756 891-1048 partner limits assumed): as the sequence (P06756 891-1048 partner limits assumed) above
T2 sequence (P18084 24-799): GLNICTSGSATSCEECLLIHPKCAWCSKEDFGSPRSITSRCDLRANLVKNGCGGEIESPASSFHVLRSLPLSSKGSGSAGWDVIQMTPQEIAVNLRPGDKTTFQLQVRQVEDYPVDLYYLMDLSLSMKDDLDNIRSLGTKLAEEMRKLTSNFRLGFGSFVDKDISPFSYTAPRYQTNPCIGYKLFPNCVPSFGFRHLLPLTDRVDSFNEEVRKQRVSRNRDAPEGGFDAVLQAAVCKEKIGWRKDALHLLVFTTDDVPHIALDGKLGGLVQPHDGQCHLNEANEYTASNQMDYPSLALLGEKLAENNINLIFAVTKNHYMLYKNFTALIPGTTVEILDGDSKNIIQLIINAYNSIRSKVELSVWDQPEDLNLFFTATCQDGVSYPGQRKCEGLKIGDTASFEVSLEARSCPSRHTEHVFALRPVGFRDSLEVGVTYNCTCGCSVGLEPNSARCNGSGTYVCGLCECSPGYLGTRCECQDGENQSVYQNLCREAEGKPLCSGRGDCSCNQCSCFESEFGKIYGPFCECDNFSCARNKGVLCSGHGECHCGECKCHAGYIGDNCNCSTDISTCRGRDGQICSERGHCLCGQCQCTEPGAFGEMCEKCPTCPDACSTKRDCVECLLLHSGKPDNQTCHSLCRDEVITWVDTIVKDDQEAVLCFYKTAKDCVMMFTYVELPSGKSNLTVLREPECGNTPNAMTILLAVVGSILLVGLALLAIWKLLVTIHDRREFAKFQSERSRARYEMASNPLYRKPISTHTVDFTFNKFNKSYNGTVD
T4 sequence (P06756 31-889 limits assumed): as the sequence (P06756 31-889 limits assumed) above
T4 sequence (P06756 891-1048 partner limits assumed): as the sequence (P06756 891-1048 partner limits assumed) above
T4 sequence (P05106 27-788): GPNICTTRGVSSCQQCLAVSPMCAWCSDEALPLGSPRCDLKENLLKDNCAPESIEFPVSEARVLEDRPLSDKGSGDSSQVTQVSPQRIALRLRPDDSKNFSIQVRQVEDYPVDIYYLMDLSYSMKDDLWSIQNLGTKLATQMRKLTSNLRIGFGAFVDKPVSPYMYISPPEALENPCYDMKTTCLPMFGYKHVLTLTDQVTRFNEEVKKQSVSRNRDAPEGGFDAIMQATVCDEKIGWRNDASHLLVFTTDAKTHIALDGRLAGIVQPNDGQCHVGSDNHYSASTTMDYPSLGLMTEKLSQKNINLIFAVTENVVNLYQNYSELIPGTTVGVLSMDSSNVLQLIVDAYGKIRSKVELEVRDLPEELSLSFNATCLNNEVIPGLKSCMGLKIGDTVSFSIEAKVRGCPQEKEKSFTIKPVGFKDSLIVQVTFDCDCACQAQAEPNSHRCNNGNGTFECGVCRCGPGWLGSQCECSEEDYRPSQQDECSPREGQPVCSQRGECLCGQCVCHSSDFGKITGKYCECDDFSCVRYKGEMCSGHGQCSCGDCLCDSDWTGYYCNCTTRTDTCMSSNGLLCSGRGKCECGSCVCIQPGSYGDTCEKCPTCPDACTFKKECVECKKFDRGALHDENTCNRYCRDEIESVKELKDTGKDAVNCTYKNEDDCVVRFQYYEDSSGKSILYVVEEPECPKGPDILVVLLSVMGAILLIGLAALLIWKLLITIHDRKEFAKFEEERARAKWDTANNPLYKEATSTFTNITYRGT

IC50 (αvβ6) [nM]	IC50 (αvβ5) [nM]	IC50 (αvβ8) [nM]	IC50 (αvβ3) [nM]	IC50 (αvβ1) [nM]	Structure (SMILES)
6.31	50.1	25.1	631	–	O=C(O)CC(CN1CC[C@@H](CCc2ccc3c(n2)NCCC3)C1)c1cccc(-n2ccc(C(F)(F)F)n2)c1 (stereo partly drawn) [Example 7, 4-((R)-3-(2-(5,6,7,8-tetrahydro-1,8-naphthyridin-2-yl)ethyl)pyrrolidin-1-yl)-3-(3-(3-(trifluoromethyl)-1H-pyrazol-1-yl)phenyl) butanoic acid]
2.51	158	10	631	–	Cc1cc(CO)nn1-c1cccc(C(CC(=O)O)CN2CC[C@@H](CCc3ccc4c(n3)NCCC4)C2)c1 (single isomer, unassigned) [Example 10]
12.6	200	50.1	3980	–	Cc1cc(C(C)(C)O)nn1-c1cccc(C(CC(=O)O)CN2CC[C@@H](CCc3ccc4c(n3)NCCC4)C2)c1 (single isomer, unassigned) [Example 6]
3.16	158	15.8	1260	63.1	Cc1cc(CF)nn1-c1cccc(C(CC(=O)O)CN2CC[C@@H](CCc3ccc4c(n3)NCCC4)C2)c1 (stereo partly drawn) [Example 11, 3-(3-(3-(fluoromethyl)-5-methyl-1H-pyrazol-1-yl)phenyl)-4-((R)-3-(2-(5,6,7,8-tetrahydro-18-naphthyridin-2-yl)ethyl)pyrrolidin-1-yl)butanoic acid]

— patent US10144733B2, “Naphthyridine derivatives as alpha v beta 6 integrin antagonists for the treatment of E.G. fibrotic diseases” (GlaxoSmithKline Intellectual Property Development Limited, priority 2014, dated 2018)
